Common to all, as to test: relative viability (nuclei count vs DMSO), 5 days (fraction); higher = more cells survive
Compound in one assay: COc1cc(Nc2c(C#N)cnc3cc(OCCCN4CCN(C)CC4)c(OC)cc23)c(Cl)cc1Cl [Bosutinib]
An outline of the steps: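 Viability was read as treated-well nuclei divided by vehicle-well nuclei, using the median across plates. Lung cancer cell lines in 1536-well plates were kept overnight at 37 °C, pinned with five √10-spaced library-drug doses, and after 5 days were Hoechst-stained, imaged at 4× and counted in MetaXpress. Plates passed only with control CV below 25% and at least one doubling.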

Compound in the assay “Bosutinib + Lapatinib”: COc1cc(Nc2c(C#N)cnc3cc(OCCCN4CCN(C)CC4)c(OC)cc23)c(Cl)cc1Cl [Bosutinib] + CS(=O)(=O)CCNCc1ccc(-c2ccc3ncnc(Nc4ccc(OCc5cccc(F)c5)c(Cl)c4)c3c2)o1 [Lapatinib] (partner 2 µM)
An outline of the steps: (§1)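 The day after seeding in 1536-well plates, lung cancer cell lines were treated by pin tool with a single drug, or with a fixed anchor-drug dose together with five library-drug doses (not always all listed) in √10 steps. After 5 days, a combined fix-and-stain solution (final 0.05% Triton X-100, 1% formaldehyde, 1 ug/ml Hoechst) was added. Nuclei counted on 4× images gave relative viability as treated counts over vehicle counts, reported as the median of duplicate plates.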

Compound in the assay “Bosutinib + AZD7762”: COc1cc(Nc2c(C#N)cnc3cc(OCCCN4CCN(C)CC4)c(OC)cc23)c(Cl)cc1Cl [Bosutinib] + NC(=O)Nc1cc(-c2cccc(F)c2)sc1C(=O)N[C@H]1CCCNC1 [AZD7762] (partner 0.2 µM)
The procedure, abridged:
as §1

Compound in the assay “Bosutinib + Vorinostat”: COc1cc(Nc2c(C#N)cnc3cc(OCCCN4CCN(C)CC4)c(OC)cc23)c(Cl)cc1Cl [Bosutinib] + O=C(CCCCCCC(=O)Nc1ccccc1)NO [Vorinostat] (partner 1 µM)
The procedure, abridged:
as §1

Compound in the assay “Bosutinib + Trametinib”: COc1cc(Nc2c(C#N)cnc3cc(OCCCN4CCN(C)CC4)c(OC)cc23)c(Cl)cc1Cl [Bosutinib] + CC(=O)Nc1cccc(-n2c(=O)n(C3CC3)c(=O)c3c(Nc4ccc(I)cc4F)n(C)c(=O)c(C)c32)c1 [Trametinib] (partner 0.02 µM)
An outline of the steps: as §1

Regarding NCI-H1355, the relative viability in the assay with Bosutinib (0.01 µM) is 0.999; in the assay with Bosutinib (0.03162 µM), 1.03; in the assay with Bosutinib (0.1 µM) it was 1.05; in the assay with Bosutinib (1 µM), 0.931; with Bosutinib + Lapatinib (first compound 0.01 µM), 1.01; with Bosutinib + Lapatinib (first compound 0.03162 µM), 1.04. The relative viability worked out at 1.09 in the assay with Bosutinib + Lapatinib (first compound 0.1 µM); 0.957 with Bosutinib + Lapatinib (first compound 1 µM); 0.801 with Bosutinib + AZD7762 (first compound 0.01 µM); 0.707 with Bosutinib + AZD7762 (first compound 0.03162 µM); 0.707 with Bosutinib + AZD7762 (first compound 0.1 µM); 0.534 with Bosutinib + AZD7762 (first compound 1 µM). In addition, the relative viability with Bosutinib + Vorinostat (first compound 0.01 µM) is 0.655; with Bosutinib + Vorinostat (first compound 0.03162 µM), 0.694; with Bosutinib + Vorinostat (first compound 0.1 µM) it was 0.708; with Bosutinib + Vorinostat (first compound 1 µM), 0.625; with Bosutinib + Trametinib (first compound 0.01 µM), 0.474; with Bosutinib + Trametinib (first compound 0.03162 µM), 0.425. Moreover, the relative viability in the assay with Bosutinib + Trametinib (first compound 0.1 µM) came out at 0.45; with Bosutinib + Trametinib (first compound 1 µM) it was 0.419.
As to NCI-H460, the relative viability with Bosutinib (0.01 µM) is 1.02; in the assay with Bosutinib (0.03162 µM) it was 0.976; with Bosutinib (0.1 µM) it was 0.967; with Bosutinib (1 µM), 0.875; in the assay with Bosutinib + Lapatinib (first compound 0.01 µM) it was 1.03; in the assay with Bosutinib + Lapatinib (first compound 0.03162 µM) it was 0.875. Besides, the relative viability with Bosutinib + Lapatinib (first compound 0.1 µM) worked out at 0.874; with Bosutinib + Lapatinib (first compound 1 µM), 0.833; in the assay with Bosutinib + AZD7762 (first compound 0.01 µM) it was 0.645; with Bosutinib + AZD7762 (first compound 0.03162 µM), 0.576; with Bosutinib + AZD7762 (first compound 0.1 µM) it was 0.482; with Bosutinib + AZD7762 (first compound 1 µM), 0.415. The relative viability was 0.719 with Bosutinib + Vorinostat (first compound 0.01 µM); 0.717 with Bosutinib + Vorinostat (first compound 0.03162 µM); 0.761 with Bosutinib + Vorinostat (first compound 0.1 µM); 0.775 with Bosutinib + Vorinostat (first compound 1 µM); 0.17 in the assay with Bosutinib + Trametinib (first compound 0.01 µM); 0.135 in the assay with Bosutinib + Trametinib (first compound 0.03162 µM). Also, the values for the relative viability in the assay with Bosutinib + Trametinib (first compound 0.1 µM) and with Bosutinib + Trametinib (first compound 1 µM) were 0.157 and 0.0941, respectively.
With NCI-H1993, the relative viability was 0.977 with Bosutinib (0.01 µM); 0.9 with Bosutinib (0.03162 µM); 0.987 with Bosutinib (0.1 µM); 0.936 in the assay with Bosutinib (1 µM); 0.814 with Bosutinib + Lapatinib (first compound 0.01 µM); 0.85 with Bosutinib + Lapatinib (first compound 0.03162 µM). The relative viability with Bosutinib + Lapatinib (first compound 0.1 µM) came to 0.947; with Bosutinib + Lapatinib (first compound 1 µM), 0.835; with Bosutinib + AZD7762 (first compound 0.01 µM), 0.759; with Bosutinib + AZD7762 (first compound 0.03162 µM) it was 0.778; with Bosutinib + AZD7762 (first compound 0.1 µM), 0.847; in the assay with Bosutinib + AZD7762 (first compound 1 µM) it was 0.672. The relative viability with Bosutinib + Vorinostat (first compound 0.01 µM) was 0.727; in the assay with Bosutinib + Vorinostat (first compound 0.03162 µM), 0.733; in the assay with Bosutinib + Vorinostat (first compound 0.1 µM), 0.654; with Bosutinib + Vorinostat (first compound 1 µM), 0.885; with Bosutinib + Trametinib (first compound 0.01 µM), 0.461; in the assay with Bosutinib + Trametinib (first compound 0.03162 µM), 0.513. Also, the relative viability with Bosutinib + Trametinib (first compound 0.1 µM) was determined as 0.579; with Bosutinib + Trametinib (first compound 1 µM), 0.538.
With ChaGo-K-1, the relative viability with Bosutinib (0.01 µM) is 0.966; with Bosutinib (0.03162 µM), 0.976; in the assay with Bosutinib (0.1 µM), 1.01; in the assay with Bosutinib (1 µM), 0.997; with Bosutinib + AZD7762 (first compound 0.01 µM), 0.919; with Bosutinib + AZD7762 (first compound 0.03162 µM), 0.89. Further, the relative viability worked out at 0.923 with Bosutinib + AZD7762 (first compound 0.1 µM); 0.852 with Bosutinib + AZD7762 (first compound 1 µM); 0.808 with Bosutinib + Vorinostat (first compound 0.01 µM); 0.847 with Bosutinib + Vorinostat (first compound 0.03162 µM); 0.792 with Bosutinib + Vorinostat (first compound 0.1 µM); 0.789 with Bosutinib + Vorinostat (first compound 1 µM). Further, the relative viability with Bosutinib + Trametinib (first compound 0.01 µM) was determined as 0.91; in the assay with Bosutinib + Trametinib (first compound 0.03162 µM), 0.89; in the assay with Bosutinib + Trametinib (first compound 0.1 µM), 0.891; with Bosutinib + Trametinib (first compound 1 µM) it was 0.875.
Take HCC-15: the relative viability with Bosutinib (0.01 µM) was 1.05; with Bosutinib (0.03162 µM), 1.03; with Bosutinib (0.1 µM), 1.06; with Bosutinib (1 µM), 0.926; with Bosutinib + Lapatinib (first compound 0.01 µM) it was 0.901; with Bosutinib + Lapatinib (first compound 0.03162 µM), 0.858. The relative viability with Bosutinib + Lapatinib (first compound 0.1 µM) was 0.829; with Bosutinib + Lapatinib (first compound 1 µM), 0.812; with Bosutinib + AZD7762 (first compound 0.01 µM) it was 1.23; with Bosutinib + AZD7762 (first compound 0.03162 µM) it was 1.12; with Bosutinib + AZD7762 (first compound 0.1 µM), 1.23; with Bosutinib + AZD7762 (first compound 1 µM), 1.23. Moreover, the relative viability stood at 0.759 in the assay with Bosutinib + Vorinostat (first compound 0.01 µM); 0.893 with Bosutinib + Vorinostat (first compound 0.03162 µM); 0.893 in the assay with Bosutinib + Vorinostat (first compound 0.1 µM); 0.772 with Bosutinib + Vorinostat (first compound 1 µM); 0.396 in the assay with Bosutinib + Trametinib (first compound 0.01 µM); 0.457 with Bosutinib + Trametinib (first compound 0.03162 µM). The relative viability is 0.383 with Bosutinib + Trametinib (first compound 0.1 µM) and 0.328 with Bosutinib + Trametinib (first compound 1 µM).
Consider NCI-H2009, for which the relative viability with Bosutinib (0.01 µM) came to 1.07; with Bosutinib (0.03162 µM) it was 1.05; in the assay with Bosutinib (0.1 µM) it was 1.06; with Bosutinib (1 µM), 0.865; with Bosutinib + Lapatinib (first compound 0.01 µM), 0.905; with Bosutinib + Lapatinib (first compound 0.03162 µM), 1.02. For the same cell line, the relative viability amounted to 1.05 with Bosutinib + Lapatinib (first compound 0.1 µM); 0.716 with Bosutinib + Lapatinib (first compound 1 µM); 0.78 with Bosutinib + Vorinostat (first compound 0.01 µM); 0.809 in the assay with Bosutinib + Vorinostat (first compound 0.03162 µM); 0.758 with Bosutinib + Vorinostat (first compound 0.1 µM); 0.562 in the assay with Bosutinib + Vorinostat (first compound 1 µM). For the same cell line, the relative viability came to 0.276 in the assay with Bosutinib + Trametinib (first compound 0.01 µM), 0.344 in the assay with Bosutinib + Trametinib (first compound 0.03162 µM), 0.27 with Bosutinib + Trametinib (first compound 0.1 µM) and 0.166 with Bosutinib + Trametinib (first compound 1 µM).
Regarding SK-LU-1, the relative viability worked out at 0.995 with Bosutinib (0.01 µM); 1.06 in the assay with Bosutinib (0.03162 µM); 1.05 with Bosutinib (0.1 µM); 0.629 with Bosutinib (1 µM); 0.808 with Bosutinib + Lapatinib (first compound 0.01 µM); 0.919 with Bosutinib + Lapatinib (first compound 0.03162 µM). Also, the relative viability was 1 with Bosutinib + Lapatinib (first compound 0.1 µM); 0.586 in the assay with Bosutinib + Lapatinib (first compound 1 µM); 0.848 with Bosutinib + Vorinostat (first compound 0.01 µM); 0.768 in the assay with Bosutinib + Vorinostat (first compound 0.03162 µM); 0.844 in the assay with Bosutinib + Vorinostat (first compound 0.1 µM); 0.632 in the assay with Bosutinib + Vorinostat (first compound 1 µM). The relative viability amounted to 0.43 with Bosutinib + Trametinib (first compound 0.01 µM), 0.504 with Bosutinib + Trametinib (first compound 0.03162 µM), 0.498 in the assay with Bosutinib + Trametinib (first compound 0.1 µM) and 0.344 with Bosutinib + Trametinib (first compound 1 µM).

Source of the values: the supplement of paper PMC10307832.
